Assay results as given in ChEMBL document CHEMBL5579804, “Synthesis and kinetic evaluation of phosphomimetic inhibitors targeting type B ribose-5-phosphate isomerase from Mycobacterium tuberculosis” (Bioorg Med Chem Lett, 2024).

Legend:
[1] = molecular target: T1, ribose-5-phosphate isomerase (Spinacia oleracea) (UniProt Q8RU73); assay: Competitive inhibition of Spinacia oleracea RPIA assessed as ratio of Km/Ki using D-ribose-5-phosphate as substrate by Cheng-Prusoff equation analysis
T1 sequence (whole entry): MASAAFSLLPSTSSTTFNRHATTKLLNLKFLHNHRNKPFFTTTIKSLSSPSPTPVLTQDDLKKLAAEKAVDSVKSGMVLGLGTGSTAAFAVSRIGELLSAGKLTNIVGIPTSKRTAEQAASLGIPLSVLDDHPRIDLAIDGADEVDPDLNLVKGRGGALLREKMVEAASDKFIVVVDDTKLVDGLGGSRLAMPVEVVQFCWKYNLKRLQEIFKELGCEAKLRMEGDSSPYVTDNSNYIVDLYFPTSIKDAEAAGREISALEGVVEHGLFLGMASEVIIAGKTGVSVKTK

[2] = molecular target: T2, Ribose-5-phosphate isomerase B (Escherichia coli (strain K12)) (UniProt P37351); assay: Competitive inhibition of Escherichia coli RPIB assessed as ratio of Km/Ki using D-ribose-5-phosphate as substrate by Cheng-Prusoff equation analysis
T2 sequence (whole entry): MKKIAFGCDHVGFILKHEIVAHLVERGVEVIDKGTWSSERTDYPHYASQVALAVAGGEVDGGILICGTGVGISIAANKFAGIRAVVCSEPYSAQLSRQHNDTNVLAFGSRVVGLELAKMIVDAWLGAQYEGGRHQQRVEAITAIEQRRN

[3] = molecular target: T3, Ribose-5-phosphate isomerase B (Mycobacterium tuberculosis) (UniProt P9WKD7); assay: Competitive inhibition of Mycobacterium tuberculosis RPIB assessed as ratio of Km/Ki using D-ribose-5-phosphate as substrate by Cheng-Prusoff equation analysis
T3 sequence (whole entry): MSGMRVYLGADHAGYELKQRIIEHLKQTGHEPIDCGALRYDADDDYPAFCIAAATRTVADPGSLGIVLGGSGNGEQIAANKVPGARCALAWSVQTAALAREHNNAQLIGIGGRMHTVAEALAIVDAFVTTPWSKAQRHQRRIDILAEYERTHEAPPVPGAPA

[4] = Selectivity ratio of Km/Ki for Mycobacterium tuberculosis RpiB to Km/Ki for Spinacia oleracea RpiA

SMILES	Ratio [1]	Ratio [2]	Ratio [3]	Selectivity ratio [4]
O=S(=O)(O)OC[C@H]1OC(O)[C@H](O)[C@@H]1O (some centres not stated)	17	18	53	3.1
O=C(O)C(C[C@H]1OC(O)[C@H](O)[C@@H]1O)C(=O)O (some centres not stated)	7	2	6	0.8
O=C(O)[C@@H](O)[C@@H](O)[C@@H](O)COP(=O)(O)O (single isomer, unassigned)	79	–	233	3
CC(C(C(=O)O)C(=O)O)[C@@H](O)[C@@H](O)[C@@H](O)CCP(=O)(O)O (some centres not stated)	< 4	–	26	> 6.5
CC(C(C(=O)O)C(=O)O)[C@@H](O)[C@@H](O)[C@@H](O)CCC(=O)O (some centres not stated)	< 4	–	7	> 1.7
O=S(=O)(O)CC[C@H]1OC(O)[C@H](O)[C@@H]1O (some centres not stated)	26	9	19	0.7
O=C(O)[C@H](O)[C@H](O)[C@H](O)COP(=O)(O)O	–	–	–	4.5
